Experimental data: PMC11175440, “Exploring hydrophilic 2,2-di(indol-3-yl)ethanamine derivatives against Leishmania infantum” (PLOS ONE, 2024)
Entries after “also recorded” stand apart in the source; their conditions may differ.

How the values were obtained:
[1] = tested on: L. infantum MHOM/TN/80/IPT1 promastigotes; assay: L. infantum promastigotes viability assay; format: cell-based; settings: 72 h; for inhibition at 20 µM: single dose 20 μM, 26°C; for IC50: scalar dilutions from 20 to 0.31 μM, mean and 95% CI
Procedure: The reference strain L. infantum MHOM/TN/80/IPT1 (WHO international reference strain) was purchased from ATCC (ATCC® 50134™) and cultured in Evans’s Modified Tobie Medium (EMTM) at 26–28°C. During the treatment with bisindole derivative compounds, the parasites were maintained in RPMI-PY medium as described previously
The activity of bisindole derivatives was first evaluated on late log/stationary phase L. infantum promastigotes resuspended in 96-well plates (100 μL/well) in complete RPMI-PY medium with a density of 2.5×10^6 parasites/mL. The anti-parasitic activity was initially investigated with the single dose of 20 μM of each compound for 72 h at 26°C. […] As positive control, the anti-leishmanial drug miltefosine (Sigma-Aldrich, Milan, Italy) was included. Each condition was carried out in duplicate. The promastigotes viability was evaluated using the CellTiter 96H aqueous non-radioactive cell proliferation assay (Promega, Madison, Wisconsin, USA), as previously reported. The efficacy of selected compounds was evaluated by determining the IC50 values using the non-linear regression curves in GraphPad Prism 8.0 (GraphPad Software, Inc., San Diego, CA, USA). The equation used for data fitting was Y = 100/(1+10^((LogIC50-X)*HillSlope)) (hillslope not constrained), where X is equal to the log of concentration and Y is the normalized response.

[2] = tested on: L. infantum (MHOM/MA/67/ITMAP-263) axenic amastigotes; assay: In vivo anti-amastigote activity in BALB/c mice infection model (limiting dilution parasite burden); settings: all the organs (spleen, liver, bone marrow); miltefosine 10 mg/kg/day per os, 10 days
Procedure: (§1) The compound URB1483 was selected for the in vivo evaluation on a BALB/c mice infection model. Six- to seven-week-old BALB/c mice were purchased from Charles River Laboratories (Barcelona, Spain) or the I3S (Porto, Portugal) animal facility. Luciferase-expressing L. infantum (MHOM/MA/67/ITMAP-263) axenic amastigotes were cultured in complete cell-free medium MAA/20 [20] at 37°C with 5% CO2. Five-day-old cultures of amastigotes were washed twice with PBS and resuspended at a concentration of 1×10^9 parasites/Ml. A total of 17 mice were infected with 100 μL of parasite suspension containing 1×10^8 parasites. The injection was performed intra-venously (IV) in the tails of mice, and treatments started 21 days post-infection for 10 consecutive days. Formulation studies are reported in the Supporting Information (S1 Table in S1 File). […]
(§2) Mice well-being-assessment was checked every two days, in terms of weight control and the presence of stress signs. […] Spleen and liver were weighted, and bone marrow cells were counted with automatic cell counter EVE^TM (NanoEnTek, Seul, Korea). […] For bone marrow, the number of parasites was calculated per 10^5 cells using the formula: [(geometric mean of reciprocal titer from each triplicate/number of cells) × reciprocal fraction of the cells inoculated into the first well]. […]

[3] = tested on: L. infantum intracellular amastigotes; assay: Anti-amastigote assay on infected THP-1 cells; format: cell-based; settings: Leishmania infantum; THP-1 cells infected 24 h, 72 h treatment, 20 to 0.31 μM; read-out: IC50 against L. infantum intracellular amastigotes
Procedure: THP-1 cells were plated in a 96-well plate and differentiated as described above. […] Briefly, Leishmania cells were washed twice with PBS to remove any trace of serum and resuspended 1×10^7/mL PBS. […] Labeled parasites were washed three times with complete RPMI medium and used for the infection. […] To analyze the infection, cells were washed, formaldehyde/methanol fixed, stained with Hoechst dye, and observed with a fluorescence microscope. Images were acquired (at 5× magnification) at 494 nm excitation/521 nm emission (green) and 350 nm excitation/460 emission (blue) for CFSE and Hoechst staining, respectively. Automated cell counting of single-color images was performed with ImageJ software to monitor the infection: the promastigotes count on each green image was normalized with the cell count on the corresponding blue image. […] To calculate IC50, the percentage values of Leishmania cell count normalized to THP-1 cells were plotted against the log10 concentration (μM) of each compound.

[4] = Well-being, body weight and organ weight of infected and treated BALB/c mice; format: in vivo; settings: miltefosine 10 mg/kg/day per os
Procedure: as §1, §2

[5] = Cytotoxicity assay on PMA-differentiated THP-1 macrophage-like cells; format: cell-based, human; settings: human, PMA-differentiated THP-1 macrophage-like cells; 72 h, scalar dilutions from 100 to 3.12 μM; mean and 95% CI
Procedure: (§3) The human monocytic cell line THP-1 (ECACC 88081201) was cultured in RPMI-1640 medium supplemented with 10% heat-inactivated fetal bovine serum (FBS), 2 mM L-glutamine, 10 g/L non-essential amino acid, 1 mM sodium pyruvate, 100 μg/mL streptomycin, […]. Cells were maintained in a humidified incubator at 37°C and 5% CO2. All cell culture reagents were purchased from Sigma-Aldrich (St. Louis, MO, USA).
(§4) The cytotoxicity of bisindole derivative compounds was evaluated on THP-1 cells. Briefly, cells were resuspended at a density of 5×10^6 cells/mL, 100 μL/well were seeded in a 96-well plate and treated for 48 h with 20 ng/mL phorbol myristic acid (PMA) to induce differentiation into macrophages-like cells. After cell adhesion, selected compounds were used at 4, 20, and 100 μM, for 72 h at 37°C. […] Compounds with cytotoxicity higher than 20 μM were further tested to determine CC50 with scalar dilutions 1:2 or 2:3 (from 100 to 3.12 μM).
(§5) The negative control (not-treated cells) and the anti-leishmanial drug miltefosine were included in each experiment. Each condition was carried out in duplicate. To evaluate the cytotoxicity of the selected compounds, the CellTiter 96H Aqueous Non-Radioactive Cell Proliferation Assay (Promega) was performed as described above. For each compound, the SI was calculated as the ratio between cytotoxicity in THP-1 and activity against L. infantum promastigotes.

THP-1 cells = assay: as above; format: cell-based, human; settings: CC50 in THP-1 / IC50 against L. infantum promastigotes
Procedure: as §3, §4, §5

infected THP-1 cells = assay: Cytotoxic effect on infected THP-1 cells (cell count, Hoechst staining); format: cell-based, human; settings: 72 h, 1.25-20 μM
Procedure: THP-1 cells were plated in a 96-well plate and differentiated as described above. After differentiation, cells were infected with a parasite-to-cell ratio of 10:1 for 24 h with L. infantum MHOM/TN/80/IPT1 promastigotes previously stained with carboxyfluorescein succinimidyl ester (CFSE) dye (Invitrogen, Waltham, Massachusetts, USA) following manufacturer’s instructions. Briefly, Leishmania cells were washed twice with PBS to remove any trace of serum and resuspended 1×10^7/mL PBS. CFSE was then added at 5 μM final concentration, and promastigotes were incubated for 15 min at 37°C in the dark. The labeling was stopped by adding 4 volumes of cold complete media containing 10% serum and incubating in ice for 5 min. Labeled parasites were washed three times with complete RPMI medium and used for the infection. […] To analyze the infection, cells were washed, formaldehyde/methanol fixed, stained with Hoechst dye, and observed with a fluorescence microscope. Images were acquired (at 5× magnification) at 494 nm excitation/521 nm emission (green) and 350 nm excitation/460 emission (blue) for CFSE and Hoechst staining, respectively. Automated cell counting of single-color images was performed with ImageJ software to monitor the infection: the promastigotes count on each green image was normalized with the cell count on the corresponding blue image. The normalized value of infected non-treated cells was taken as 100%. To calculate IC50, the percentage values of Leishmania cell count normalized to THP-1 cells were plotted against the log10 concentration (μM) of each compound.
(B) The effect of treatment was monitored by counting the number of cells. Data are represented as mean ± SD. Two-way ANOVA; Dunnett’s multiple comparisons test; *adjusted p < 0.05, **adjusted p < 0.01.

Structure (SMILES) | inhibition at 20 µM ([1]; Leishmania infantum) | CC50 at 72 h [5] | SI (CC50/IC50) (THP-1 cells) | IC50 ([1]; Leishmania infantum) | further results
NCC(c1c[nH]c2ccc(I)cc12)c1c[nH]c2ccc(I)cc12 [1e] | 97.8% | – | – | – | –
CCCCCCCCCCCCCCCCOP(=O)([O-])OCC[N+](C)(C)C [miltefosine, reference compound] | 96.7% | 36.7 µM | 10.2 | 3.6 µM | reduction of parasite burden [2]: more than 99.9%; IC50 [3]: 1.8 µM; spleen weight ([4]; after 10 days of treatment, versus non-treated infected group): significantly lower to the non-treated group; weight decrease ([4]; infected BALB/c mice, from the second treatment): 10%
Cc1ccc(S(=O)(=O)NCC(c2cn(C)c3ccccc23)c2cn(C)c3ccccc23)cc1 [4b] | 45.7% | – | – | – | –
Fc1ccc(CNCC(c2c[nH]c3cc(Br)ccc23)c2c[nH]c3cc(Br)ccc23)cc1 [2b] | 98.2% | – | – | – | –
O=C(NCC(c1c[nH]c2cc(Br)ccc12)c1c[nH]c2cc(Br)ccc12)c1ccc(Cl)cc1 [3c] | 97.4% | – | – | – | –
O=C(NCC(c1c[nH]c2cc(Br)ccc12)c1c[nH]c2cc(Br)ccc12)c1ccc([N+](=O)[O-])cc1 [3d] | 90.4% | – | – | – | –
Brc1ccc2c(C(CNCc3ccco3)c3c[nH]c4cc(Br)ccc34)c[nH]c2c1 [2f] | 95.2% | – | – | – | –
CC(C)C(=O)NCC(c1c[nH]c2cc(Br)ccc12)c1c[nH]c2cc(Br)ccc12 [3a] | 96.7% | – | – | – | –
CC(C)CNCC(c1c[nH]c2cc(Br)ccc12)c1c[nH]c2cc(Br)ccc12 [2a] | 97.8% | – | – | – | –
NCC(c1c[nH]c2cc(Cl)ccc12)c1c[nH]c2cc(Cl)ccc12 [1c] | 95.6% | 39.4 µM | 5.3 | 7.4 µM | –
O=C(NCC(c1c[nH]c2cc(Br)ccc12)c1c[nH]c2cc(Br)ccc12)c1cccs1 [3g] | 96.9% | – | – | – | –
Cc1ccc(CNCC(c2c[nH]c3cc(Br)ccc23)c2c[nH]c3cc(Br)ccc23)cc1 [2e] | 95.8% | – | – | – | –
O=S(=O)(NCC(c1c[nH]c2cc(Br)ccc12)c1c[nH]c2cc(Br)ccc12)c1cccs1 [4c] | 97.6% | – | – | – | –
O=C(NCC(c1c[nH]c2cc(Br)ccc12)c1c[nH]c2cc(Br)ccc12)c1ccco1 [3f] | 97.2% | – | – | – | –
COC(=O)c1ccc2c(C(CN)c3c[nH]c4cc(C(=O)OC)ccc34)c[nH]c2c1 [1f] | 89.7% | 40.1 µM | 4.9 | 8.2 µM | –
Cn1cc(C(CN)c2cn(C)c3ccccc23)c2ccccc21 [1h] | 98% | 41.6 µM | 10.1 | 4.1 µM | cytotoxicity in the infection model (infected THP-1 cells): better toxicity profile than the commercial drug miltefosine; also recorded: better toxicity profile compared to the commercial drug miltefosine; IC50 [3]: 11.1 µM
Clc1ccc(CNCC(c2c[nH]c3cc(Br)ccc23)c2c[nH]c3cc(Br)ccc23)cc1 [2c] | 98.1% | 11.7 µM | 4.3 | 2.7 µM | cytotoxicity in the infection model (infected THP-1 cells): high cellular toxicity; IC50 [3]: 6.8 µM
O=C(NCC(c1c[nH]c2cc(Br)ccc12)c1c[nH]c2cc(Br)ccc12)c1ccc(F)cc1 [3b] | 97.7% | 21.9 µM | 2.3 | 9.5 µM | –
Cc1ccc(S(=O)(=O)NCC(c2c[nH]c3cc(Br)ccc23)c2c[nH]c3cc(Br)ccc23)cc1 [4a] | 96.9% | 20.2 µM | 2.1 | 9.8 µM | –
NCC(c1c[nH]c2cc(F)ccc12)c1c[nH]c2cc(F)ccc12 [1b] | 89.1% | 40.4 µM | 4.7 | 8.6 µM | –
COc1ccc(C(=O)NCC(c2c[nH]c3cc(Br)ccc23)c2c[nH]c3cc(Br)ccc23)cc1 [3e] | 95.2% | – | – | > 10 µM | IC50 [1]: 12.2 µM
O=[N+]([O-])c1ccc(CNCC(c2c[nH]c3cc(Br)ccc23)c2c[nH]c3cc(Br)ccc23)cc1 [2d] | 95% | 13.2 µM | 3.4 | 3.9 µM | –
Cn1cc(C(CN)c2cn(C)c3cc(Br)ccc23)c2ccc(Br)cc21 [1i] | 98% | – | – | – | –
Brc1ccc2c(C(CNCc3cccs3)c3c[nH]c4cc(Br)ccc34)c[nH]c2c1 [2g] | 95.5% | – | – | – | –
NCC(c1c[nH]c2ccccc12)c1c[nH]c2ccccc12 [1a] | 82.3% | – | – | > 10 µM | IC50 [1]: 12.9 µM
NCC(c1c[nH]c2cc(Br)ccc12)c1c[nH]c2cc(Br)ccc12 [1d, 2,2-bis(6-bromo-1H-indol-3-yl)ethanamine] | 96.8% | – | – | – | –
N#Cc1ccc2[nH]cc(C(CN)c3c[nH]c4ccc(C#N)cc34)c2c1 [1g] | -1.6% | – | – | – | –
